In patent US11225503B2, “Crystobactamides” (HELMHOLTZ-ZENTRUM FÜR INFEKTIONSFORSCHUNG GMBH, priority 2013, dated 2022):
pIC50: −log10 of the molar value. ≈ marks a conversion by molar mass, not a printed value. Where two headings read alike, the source gives them in different places.

Assays:
[1] = system: Micrococcus luteus DSM-1790; test: Susceptibility testing, MIC microdilution; format: cell-based; settings: Micrococcus luteus, DSM1790
Protocol: (§1) Bacterial wildtype strains used in susceptibility assays were either part of our strain collection or purchased from the German Collection of Microorganisms and Cell Cultures (DSMZ) or from the American Type Culture Collection (ATCC). E. coli strain WT^[6] and E. coli mutants were kindly provided by Prof. Dr. P. Heisig, Pharmaceutical Biology and Microbiology, University of Hamburg.
(§2) MIC values were determined in microdilution assays. Overnight cultures were diluted in the appropriate growth medium to achieve an inoculum of 10^4-10^6 cfu/mL. Yeasts were grown in Myc medium (1% phytone peptone, 1% glucose, 50 mM HEPES, pH 7.0), S. pneumonia and E. faecalis in tryptic soy broth (TSB: 1.7% peptone casein, 0.3% peptone soymeal, 0.25% glucose, 0.5% NaCl, 0.25% K2HPO4; pH 7.3); M. smegmatis in Middlebrook 7H9 medium supplemented with 10% Middlebrook ADC enrichment and 2 ml/l glycerol). All other listed bacteria were grown in Müller-Hinton broth (0.2% beef infusion solids, 1.75% casein hydrolysate, 0.15% starch, pH 7.4). Cystobactamides and reference drugs were added directly to the cultures in sterile 96-well plates as duplicates and serial dilutions were prepared. Microorganisms were grown on a microplate shaker (750 rpm, 30-37° C., 18-48 h), except S. pneumonia, which was grown at non-shaking conditions (37° C., 5% CO2, 18 h). Growth inhibition was assessed by visual inspection and the MIC was defined as the lowest concentration of compound that inhibited visible growth.

[2] = system: Escherichia coli DSM-12242 (NAL^R); test: Susceptibility testing, MIC microdilution; format: cell-based; settings: Escherichia coli, DSM12242
Protocol: as §1, §2

[3] = system: Enterococcus faecalis ATCC29212; test: Susceptibility testing, MIC microdilution; format: cell-based
Protocol: as §1, §2

[4] = system: Acinetobacter baumannii DSM-30008; test: Susceptibility testing, MIC microdilution; format: cell-based; settings: Acinetobacter baumannii, DSM30008
Protocol: as §1, §2

[5] = system: Escherichia coli ATCC35218; test: Susceptibility testing, MIC microdilution; format: cell-based
Protocol: as §1, §2

[6] = system: Chromobacterium violaceum DSM-30191; test: Susceptibility testing, MIC microdilution; format: cell-based; settings: Chromobacterium violaceum, DSM30191
Protocol: as §1, §2

[7] = system: Candida albicans DSM-1665; test: Susceptibility testing, MIC microdilution; format: cell-based; settings: Candida albicans, DSM1665
Protocol: as §1, §2

Bacillus subtilis DSM-10 = test: Susceptibility testing, MIC microdilution; format: cell-based; settings: Bacillus subtilis, DSM10
Protocol: as §1, §2

[8] = system: Staphylococcus aureus ATCC29213; test: Susceptibility testing, MIC microdilution; format: cell-based
Protocol: as §1, §2

[9] = system: Pseudomonas aeruginosa ATCC27853; test: Susceptibility testing, MIC microdilution; format: cell-based
Protocol: as §1, §2

Pichia anomala DSM-6766 = test: Susceptibility testing, MIC microdilution; format: cell-based; settings: Hansenula anomala, DSM6766
Protocol: as §1, §2

[10] = system: Streptococcus pneumoniae DSM-20566; test: Susceptibility testing, MIC microdilution; format: cell-based; settings: Streptococcus pneumoniae, DSM20566
Protocol: as §1, §2

[11] = system: E. coli strain WT-4 M2.1 (parC mutation); test: Susceptibility of mutant E. coli strains, MIC; format: cell-based; settings: Escherichia coli
Description: (§3) Cystobactamides were screened using a panel of E. coli strains with typical mutations in gyrA and parC genes (Table 11).
as §1, §2

[12] = system: E. coli strain WT III (marR Δ74 bp); test: Susceptibility of mutant E. coli strains, MIC; format: cell-based; settings: Escherichia coli
Protocol: as §1, §2

E. coli WT = test: Susceptibility of mutant E. coli strains, MIC; format: cell-based; settings: Escherichia coli
Description: as §3
High-level quinolone resistance often results from a combination of several target site mutations and altered efflux mechanisms. […] This, in turn, leads to overproduction of MarA and AcrAB and overexpression of the AcrAB efflux pump is associated with the MAR (multiple antibiotic resistance) phenotype.^[5]
as §1, §2

E. coli topoisomerase IV = biological target: T1, E. coli topoisomerase IV (Escherichia coli, UniProt P0AFI2+P20083); test: Topoisomerase IV relaxation (inhibition) assay; format: biochemical
T1 construct: purchased Inspiralis (Norwich, UK)
Protocol: Prokaryotic DNA gyrase and topoisomerase IV share a high degree of homology and gyrase inhibitors typically show a topoisomerase IV inhibitory activity.^8 To test the influence of the cystobactamides on topoisomerase IV a commercial E. coli topoisomerase IV kit (Inspiralis) was used.
The topo IV reactions were titrated with varying concentrations of A-D and resolved by agarose gel electrophoresis. For IC50 determination the band intensity of the supercoiled plasmid was determined using Adobe Photoshop, plotted vs. [cystobactamide] and fitted using Hill's equation.
(§4) Following natural product concentrations were used in the assay:
(§5) Control reactions were: no enzyme and a standard reaction in presence of 5% (v/v) DMSO. All reaction samples were equilibrated for 10 minutes at room-temperature in the absence of DNA. Then the relaxed plasmid was added to start the reaction.
(§6) To determine IC50 values, the formation of supercoiled (gyrase) or relaxed (topoisomerase I, II IV) plasmid was quantified using Adobe Photoshop (Histogram mode). Plotting of these values versus the compound concentration yielded sigmoidal shaped curves, which were fitted using Hill's equation (Origin Pro 8.5). All determined IC50 values are the averages of three independent experiments.

[13] = biological target: T2, H. sapiens topoisomerase II (Homo sapiens, UniProt P11388); test: Topoisomerase II relaxation (inhibition) assay; format: biochemical; settings: for pIC50: H. sapiens Topoisomerase II inhibition assay, read-out: IC50
T2 construct: purchased Inspiralis (Norwich, UK)
Protocol: The topo II reactions were titrated with varying concentrations of A-D and resolved by agarose gel electrophoresis. For IC50 determination the band intensity of the supercoiled plasmid was determined using Adobe Photoshop, plotted vs. [cystobactamide] and fitted using Hill's equation.
as §4, §5, §6

E. coli gyrase = biological target: T3, E. coli gyrase (Escherichia coli, UniProt P0AES4+P0AES6); test: Gyrase supercoiling (inhibition) assay; format: biochemical
T3 construct: purchased Inspiralis (Norwich, UK)
Protocol: To test the anti-gyrase activity of cystobactamides, commercial E. coli gyrase supercoiling kits (Inspiralis) were used.
For IC50 determination the band intensity of the supercoiled plasmid was determined using Adobe Photoshop, plotted vs. [cystobactamide] and fitted using Hill's equation.
All natural products stock solutions and dilutions were prepared in 100% DMSO and added to the supercoiling reactions giving a final DMSO concentration of 5% (v/v).
as §4
Control reactions were: no enzyme and a standard reaction in presence of 5% (v/v) DMSO.
All reaction samples were equilibrated for 10 minutes at room-temperature in the absence of DNA. Then the relaxed plasmid was added to start the reaction.
To determine IC50 values, the formation of supercoiled (gyrase) or relaxed (topoisomerase I, II IV) plasmid was quantified using Adobe Photoshop (Histogram mode). […] All determined IC50 values are the averages of three independent experiments.

[14] = IC50 in the Gyrase inhibition assay, table, averages of three independent experiments
[15] = apparent IC50, E. coli gyrase, E. coli gyrase 20.5 nM eq. 1 unit

T1 sequence (P20083 whole entry): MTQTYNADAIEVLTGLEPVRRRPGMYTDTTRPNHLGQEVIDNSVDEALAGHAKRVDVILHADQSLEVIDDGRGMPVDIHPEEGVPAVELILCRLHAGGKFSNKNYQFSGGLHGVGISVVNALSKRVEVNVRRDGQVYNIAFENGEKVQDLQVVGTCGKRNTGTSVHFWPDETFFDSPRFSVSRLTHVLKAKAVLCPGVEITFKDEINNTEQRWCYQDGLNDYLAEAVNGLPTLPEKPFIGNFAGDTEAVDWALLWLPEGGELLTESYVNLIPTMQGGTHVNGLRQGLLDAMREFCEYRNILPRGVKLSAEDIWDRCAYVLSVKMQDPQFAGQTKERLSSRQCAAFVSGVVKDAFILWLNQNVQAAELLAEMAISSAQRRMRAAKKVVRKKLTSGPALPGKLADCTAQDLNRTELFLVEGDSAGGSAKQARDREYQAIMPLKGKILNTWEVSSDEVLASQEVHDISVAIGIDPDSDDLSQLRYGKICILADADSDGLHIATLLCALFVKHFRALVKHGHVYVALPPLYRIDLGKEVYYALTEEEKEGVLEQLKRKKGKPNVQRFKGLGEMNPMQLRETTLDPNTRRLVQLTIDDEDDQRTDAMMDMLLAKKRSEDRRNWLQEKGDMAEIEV
T1 sequence (P0AFI2 whole entry): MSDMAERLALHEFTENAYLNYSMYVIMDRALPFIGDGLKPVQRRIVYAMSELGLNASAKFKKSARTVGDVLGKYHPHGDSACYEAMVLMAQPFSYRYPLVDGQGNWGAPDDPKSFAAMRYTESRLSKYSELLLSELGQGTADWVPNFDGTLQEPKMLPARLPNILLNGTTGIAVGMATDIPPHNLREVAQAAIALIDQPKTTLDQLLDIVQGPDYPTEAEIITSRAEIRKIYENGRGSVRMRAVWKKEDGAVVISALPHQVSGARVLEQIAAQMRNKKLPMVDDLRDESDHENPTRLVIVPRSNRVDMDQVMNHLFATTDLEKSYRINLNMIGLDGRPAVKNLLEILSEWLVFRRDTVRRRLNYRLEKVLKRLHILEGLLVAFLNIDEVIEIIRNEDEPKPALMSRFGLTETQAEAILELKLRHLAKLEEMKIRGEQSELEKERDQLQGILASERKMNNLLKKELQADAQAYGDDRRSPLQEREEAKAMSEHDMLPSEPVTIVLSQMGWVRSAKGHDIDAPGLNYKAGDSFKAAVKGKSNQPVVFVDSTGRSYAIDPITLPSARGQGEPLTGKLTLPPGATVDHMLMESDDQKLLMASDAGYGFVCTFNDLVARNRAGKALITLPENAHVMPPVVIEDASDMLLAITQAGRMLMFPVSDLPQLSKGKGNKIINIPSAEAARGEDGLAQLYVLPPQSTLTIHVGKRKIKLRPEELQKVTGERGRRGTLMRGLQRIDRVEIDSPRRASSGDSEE
T2 sequence (P11388 whole entry): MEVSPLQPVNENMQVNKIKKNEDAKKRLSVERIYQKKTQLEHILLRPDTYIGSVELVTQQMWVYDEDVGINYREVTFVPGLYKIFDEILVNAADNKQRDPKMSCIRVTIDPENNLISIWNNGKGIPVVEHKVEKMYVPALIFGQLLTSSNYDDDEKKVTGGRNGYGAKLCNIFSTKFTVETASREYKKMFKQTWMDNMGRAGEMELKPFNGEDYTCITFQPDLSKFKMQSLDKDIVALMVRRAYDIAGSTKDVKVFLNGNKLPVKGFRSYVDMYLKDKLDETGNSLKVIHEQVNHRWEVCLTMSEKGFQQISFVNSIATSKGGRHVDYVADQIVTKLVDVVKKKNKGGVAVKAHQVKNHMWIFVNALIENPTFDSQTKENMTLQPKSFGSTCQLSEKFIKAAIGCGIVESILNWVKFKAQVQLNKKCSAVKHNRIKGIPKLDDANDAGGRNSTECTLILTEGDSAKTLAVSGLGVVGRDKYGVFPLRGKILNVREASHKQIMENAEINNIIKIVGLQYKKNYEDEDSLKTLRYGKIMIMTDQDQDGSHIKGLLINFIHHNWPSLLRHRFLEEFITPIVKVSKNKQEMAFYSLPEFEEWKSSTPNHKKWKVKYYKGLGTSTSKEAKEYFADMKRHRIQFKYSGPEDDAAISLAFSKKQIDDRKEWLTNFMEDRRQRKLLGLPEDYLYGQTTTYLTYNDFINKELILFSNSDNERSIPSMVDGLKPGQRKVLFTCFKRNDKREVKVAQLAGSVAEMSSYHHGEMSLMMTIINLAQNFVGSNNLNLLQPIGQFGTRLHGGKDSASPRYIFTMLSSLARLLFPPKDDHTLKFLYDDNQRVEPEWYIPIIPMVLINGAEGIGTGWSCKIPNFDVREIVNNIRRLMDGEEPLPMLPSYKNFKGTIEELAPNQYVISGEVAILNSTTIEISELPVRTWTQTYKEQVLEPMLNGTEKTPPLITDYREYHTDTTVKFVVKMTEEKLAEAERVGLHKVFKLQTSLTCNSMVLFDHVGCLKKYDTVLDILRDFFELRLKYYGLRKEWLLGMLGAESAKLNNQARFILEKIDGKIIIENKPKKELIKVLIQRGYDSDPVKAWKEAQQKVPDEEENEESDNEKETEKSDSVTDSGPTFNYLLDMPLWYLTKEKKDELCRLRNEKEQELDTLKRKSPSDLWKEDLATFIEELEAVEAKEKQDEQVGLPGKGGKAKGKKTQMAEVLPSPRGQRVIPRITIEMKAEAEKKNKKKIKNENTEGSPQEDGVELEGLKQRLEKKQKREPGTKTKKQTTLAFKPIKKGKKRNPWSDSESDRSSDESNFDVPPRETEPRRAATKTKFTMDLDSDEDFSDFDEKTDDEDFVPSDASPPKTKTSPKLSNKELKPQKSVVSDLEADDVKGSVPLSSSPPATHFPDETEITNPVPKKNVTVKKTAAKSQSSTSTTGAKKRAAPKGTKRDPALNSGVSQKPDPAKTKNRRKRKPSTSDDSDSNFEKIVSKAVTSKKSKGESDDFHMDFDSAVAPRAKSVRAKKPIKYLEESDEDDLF
T3 sequence (P0AES4 whole entry, one chain of several): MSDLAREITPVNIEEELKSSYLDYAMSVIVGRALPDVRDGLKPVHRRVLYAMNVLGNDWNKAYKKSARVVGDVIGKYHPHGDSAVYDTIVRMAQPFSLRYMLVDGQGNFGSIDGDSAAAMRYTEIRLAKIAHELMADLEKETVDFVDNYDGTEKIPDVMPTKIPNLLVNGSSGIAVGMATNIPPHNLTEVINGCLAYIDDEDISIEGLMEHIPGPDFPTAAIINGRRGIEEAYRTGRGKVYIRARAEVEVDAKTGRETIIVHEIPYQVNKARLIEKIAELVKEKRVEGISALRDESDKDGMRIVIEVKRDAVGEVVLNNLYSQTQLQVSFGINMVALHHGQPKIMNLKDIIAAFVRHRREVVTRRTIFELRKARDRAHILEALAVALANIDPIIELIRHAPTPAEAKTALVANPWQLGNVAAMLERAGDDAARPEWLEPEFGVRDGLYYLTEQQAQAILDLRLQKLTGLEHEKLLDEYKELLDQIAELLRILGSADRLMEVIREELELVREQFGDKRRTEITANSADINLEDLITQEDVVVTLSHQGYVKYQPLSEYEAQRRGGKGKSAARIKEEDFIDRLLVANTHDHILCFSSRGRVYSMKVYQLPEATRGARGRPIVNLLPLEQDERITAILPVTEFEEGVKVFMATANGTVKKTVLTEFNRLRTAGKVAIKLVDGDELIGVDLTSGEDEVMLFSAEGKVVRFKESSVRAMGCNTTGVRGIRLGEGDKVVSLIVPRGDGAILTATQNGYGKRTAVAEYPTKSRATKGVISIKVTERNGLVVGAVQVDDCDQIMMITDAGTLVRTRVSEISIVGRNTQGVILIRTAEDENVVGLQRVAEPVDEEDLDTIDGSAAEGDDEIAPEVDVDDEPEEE

## CO[C@H](C(=O)Nc1ccc(C(=O)Nc2ccc(C(=O)Nc3ccc(C(=O)O)cc3OC(C)C)c(O)c2OC(C)C)cc1)[C@H](NC(=O)c1ccc(NC(=O)c2ccc([N+](=O)[O-])cc2)cc1)C(=O)O [cystobactamide A, Cystobactamide A]
[1]
  MIC: 0.06 µg/mL (≈ 0.0652 µM)
[2]
  MIC: 0.9 µg/mL (≈ 0.977 µM)
[3]
  MIC: 0.06 µg/mL (≈ 0.0652 µM)
[4]
  MIC: 7.4 µg/mL (≈ 8.04 µM)
[5]
  MIC: 0.9 µg/mL (≈ 0.977 µM)
[6]
  MIC: > 59 µg/mL
[7]
  MIC: > 59 µg/mL
Bacillus subtilis DSM-10
  MIC: 0.12 µg/mL (≈ 0.13 µM)
[8]
  MIC: 0.12 µg/mL (≈ 0.13 µM)
[9]
  MIC: > 59 µg/mL
Pichia anomala DSM-6766
  MIC: > 59 µg/mL
[10]
  MIC: 0.23 µg/mL (≈ 0.25 µM)
[11]
  MIC: 0.5 µg/mL (≈ 0.543 µM)
[12]
  MIC: 14.7 µg/mL (≈ 16 µM)
E. coli WT
  MIC: 0.5 µg/mL
E. coli topoisomerase IV; IC50 Topo IV, E. coli topoisomerase IV
  pIC50: ~3.09
E. coli topoisomerase IV; IC50 in the E. coli Topoisomerase IV inhibition assay, averages of three independent experiments
  pIC50: < 3.80
E. coli topoisomerase IV
  concentration at which E. coli topo IV activity was inhibited (only the highest tested concentration): 815 µM
[13]
  pIC50: < 3.80
  concentration at which human topo II activity was inhibited (only the highest tested concentration): 815 µM
E. coli gyrase; IC50 gyrase, E. coli gyrase
  pIC50: 5.22
E. coli gyrase; [14]
  pIC50: 5.22
E. coli gyrase; [15]
  pIC50: 5.22

## CC(C)Oc1cc(C(=O)O)ccc1NC(=O)c1ccc(NC(=O)c2ccc(N)cc2)c(OC(C)C)c1O [cystobactamide C, Cystobactamide C]
[1]
  MIC: 4.1 µg/mL (≈ 8.08 µM)
[2]
  MIC: 8.1 µg/mL (≈ 16 µM)
[3]
  MIC: 4.1 µg/mL (≈ 8.08 µM)
[4]
  MIC: 32.5 µg/mL (≈ 64 µM)
[5]
  MIC: 16.3 µg/mL (≈ 32.1 µM)
[6]
  MIC: 16.3 µg/mL (≈ 32.1 µM)
[7]
  MIC: > 65 µg/mL
Bacillus subtilis DSM-10
  MIC: 2 µg/mL (≈ 3.94 µM)
[8]
  MIC: 8.1 µg/mL (≈ 16 µM)
[9]
  MIC: 65 µg/mL (≈ 128 µM)
Pichia anomala DSM-6766
  MIC: > 65 µg/mL
[10]
  MIC: 8.1 µg/mL (≈ 16 µM)
[11]
  MIC: 8.1 µg/mL (≈ 16 µM)
[12]
  MIC: 65 µg/mL (≈ 128 µM)
E. coli WT
  MIC: 8.1 µg/mL
E. coli topoisomerase IV; E. coli topoisomerase IV, read-out: IC50 Topo IV
  pIC50: ~3.52
E. coli topoisomerase IV; averages of three independent experiments, read-out: IC50 in the E. coli Topoisomerase IV inhibition assay
  pIC50: < 4.22
E. coli topoisomerase IV
  concentration at which E. coli topo IV activity was inhibited (only the highest tested concentration): 300 µM
E. coli topoisomerase IV; topo IV vs. gyrase
  ratios IC50(topo IV)/IC50(gyrase): ~42
[13]
  pIC50: < 4.22
  concentration at which human topo II activity was inhibited (only the highest tested concentration): 300 µM
E. coli gyrase; IC50 gyrase, E. coli gyrase
  pIC50: 5.14
E. coli gyrase; [14]
  pIC50: 5.14
E. coli gyrase; [15]
  pIC50: 5.11
